Data from patent US9687572B2, “PSMA-targeted dendrimers” (MOLECULAR INSIGHT PHARMACEUTICALS, INC., priority 2010, dated 2017).

Molecular target: T1, PSMA (Homo sapiens, UniProt Q04609)
T1 construct: host or cells: LNCaP human prostate cancer cells
Experiment: Competitive binding assay against [123I]-MIP-1072 on LNCaP cells
Conditions: FIG. 1
Protocol: The newly prepared analogs of the general structure 5 were screened in a human prostate cancer cell binding assay at a concentration of 3 nM using PSMA positive (+), LnCap cells.
Human prostate cancer cell line, LNCaP (PSMA positive) were obtained from the American Type Culture Collection (Rockville, Md.). LNCaP cells were maintained in RPMI-1640 medium (Invitrogen, Carlsbad, Calif.) supplemented with 10% fetal bovine serum (Hyclone, Logan, Utah) in a humidified incubator at 37° C./5% CO2. Cells were removed from flasks for passage or for transfer to 12-well assay plates by incubating them with 0.25% trypsin/EDTA (Invitrogen, Carlsbad, Calif.).
In a typical competitive binding assay, LNCaP cells were plated in 12-well plates at approximately 4×10^5 cells/well and incubated for 48 hours in a humidified incubator at 37° C./5% carbon dioxide prior to addition of PSMA inhibitors. The exemplary EDTA-PSMA tetramer MIP-1444 was diluted in serum-free cell culture medium containing 0.5% bovine serum albumin (BSA). Diluted MIP-1444 was added to the cells in the presence of 3 nM [^123I]-MIP-1072 for 1 hour at room temperature. Cells were removed from the plates by gently pipetting and transferred to 1.5 mL Eppendorff tubes. Samples were microcentrifuged for 30 seconds at 15K×g. […] Cell binding of [^123I]-MIP-1072 was determined by counting the cell pellet in a Wallac 1282 automated gamma counter. […]

T1 sequence (Q04609 whole entry): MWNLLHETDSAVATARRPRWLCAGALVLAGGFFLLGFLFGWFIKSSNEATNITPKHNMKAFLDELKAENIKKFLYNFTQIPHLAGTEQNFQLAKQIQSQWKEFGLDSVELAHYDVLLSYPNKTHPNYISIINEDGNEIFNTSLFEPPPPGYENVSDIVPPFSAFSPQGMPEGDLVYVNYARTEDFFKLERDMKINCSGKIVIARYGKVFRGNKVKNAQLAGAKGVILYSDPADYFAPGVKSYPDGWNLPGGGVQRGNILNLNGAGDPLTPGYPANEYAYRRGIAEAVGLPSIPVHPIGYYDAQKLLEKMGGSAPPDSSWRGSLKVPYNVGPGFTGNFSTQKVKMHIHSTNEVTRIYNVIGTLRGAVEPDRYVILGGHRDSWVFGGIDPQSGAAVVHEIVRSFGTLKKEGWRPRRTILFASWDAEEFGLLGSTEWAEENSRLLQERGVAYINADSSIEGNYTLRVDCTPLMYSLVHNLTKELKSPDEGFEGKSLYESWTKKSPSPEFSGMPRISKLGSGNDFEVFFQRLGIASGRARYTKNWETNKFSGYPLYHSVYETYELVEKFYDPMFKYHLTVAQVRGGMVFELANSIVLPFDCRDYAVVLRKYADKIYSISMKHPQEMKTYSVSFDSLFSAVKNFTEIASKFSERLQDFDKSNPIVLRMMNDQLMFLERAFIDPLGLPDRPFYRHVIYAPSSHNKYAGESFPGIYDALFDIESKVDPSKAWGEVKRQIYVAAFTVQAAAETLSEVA

NCCCC[C@H](NC(=O)N[C@@H](CCC(=O)O)C(=O)O)C(=O)O [MIP-1033]
IC50 value fold greater than the IC50 for the tetramer MIP-1444 (3 nM [123I]-MIP-1072, 1 hour at room temperature): 36 fold | affinity for PSMA (in words) (competitive binding curves): low affinity
